Test results taken from patent US8609652B2, “Method of administering a methylene blue-curcumin analog for the treatment of alzheimer's disease” (DePuy Synthes Products, LLC, priority 2009, dated 2013).
Entries after “also recorded” stand apart in the source; their conditions may differ. Structures can show the parent of a compound that is named as a salt. Where two headings read alike, the source gives them in different places.

How the values were obtained:
[1] = cited from earlier work
[2] = cited from earlier work; for Parent Solubility: parent phenol
[3] = cited from earlier work; remark: listed apart in the source
[4] = in vivo, 1 mg/kg
Excerpt: In some embodiments, the water-soluble ester prodrug is created by reacting the phenolic parent compound with dimethylglycine. The literature reports rendering lipophilic phenolic compounds water soluble by reacting the phenolic parent compound with dimethylglycine. […]. Al-Ghananeem concluded that the prodrug provides for targeted intranasal delivery of 17B-estradiol to the brain.

[5] = cited from earlier work; for peak cerebrospinal fluid (CSF) concentration of estradiol: in vivo, 1 mg/kg
[6] = predicted curcumin levels from transdermal iontophoresis of charged curcumin prodrugs; assay type: in vivo, human
[7] = cited from earlier work; for serum Cmax: volunteers
[8] = cited from earlier work; remark: listed apart in the source
UGT1A1 = target: T1, UGT1A1 (Homo sapiens, UniProt P22309); conditions: about one hour after exposure; cited from earlier work
T1 sequence (P22309 26-533): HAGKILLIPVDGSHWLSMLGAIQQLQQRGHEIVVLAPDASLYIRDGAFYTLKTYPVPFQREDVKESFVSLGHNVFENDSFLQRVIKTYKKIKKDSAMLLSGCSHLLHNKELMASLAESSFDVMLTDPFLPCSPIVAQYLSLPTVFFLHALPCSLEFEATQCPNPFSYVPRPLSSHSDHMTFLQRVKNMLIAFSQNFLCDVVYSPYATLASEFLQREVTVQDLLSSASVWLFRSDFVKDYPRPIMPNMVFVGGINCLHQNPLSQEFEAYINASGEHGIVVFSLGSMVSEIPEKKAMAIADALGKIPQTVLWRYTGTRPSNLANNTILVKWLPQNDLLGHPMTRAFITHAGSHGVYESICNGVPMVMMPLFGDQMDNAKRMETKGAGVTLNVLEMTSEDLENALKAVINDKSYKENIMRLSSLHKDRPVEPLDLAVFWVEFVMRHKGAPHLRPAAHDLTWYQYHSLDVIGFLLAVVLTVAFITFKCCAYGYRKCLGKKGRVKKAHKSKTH

[9] = oral dosing, cited from earlier work
amyloid plaques = conditions: injected peripherally, aged Tg mice; cited from earlier work
MRP2 = MRP2 (Homo sapiens, UniProt Q92887); conditions: read-out: IC50, MRP-2-mediated transport; Wortelboer; cited from earlier work
[10] = brain tissue concentration after curcumin injection (Wang); conditions: injection of 30 mg/kg
[11] = test system: enzymatic glucuronidation activity; conditions: concentrations in excess of about 10 mM; cited from earlier work
PC12 cells = test: relative potency versus curcumin in in vitro protection of PC12 cells against beta amyloid insult; assay type: cell-based
Excerpt: Each of the parent compounds may be obtained by the methods disclosed in Park.
It is further observed that both of these qualities can be placed into the same molecule (35).

PC12 cells, βA (25-35) = conditions: cited from earlier work; for anti-βA (25-35) ED50: Park, concentration required to achieve 50% cell viability; for anti-BA (25-35) ED50: Kim
PC12 cells, βA (1-42) = conditions: cited from earlier work; for anti-βA (1-42) ED50: Park; for anti-BA (1-42) ED50: Kim
UGT enzymes = conditions: cited from earlier work
rat hippocampal neurons = conditions: cited from earlier work
[12] = test system: cultured hippocampal cells; conditions: cited from earlier work
[13] = cited from earlier work; remark: listed apart in the source
[14] = target: plasma membrane binding sites for resveratrol; conditions: rat brain; cited from earlier work
AD patients' macrophages = conditions: cited from earlier work
[15] = cited from earlier work; remark: listed apart in the source
[16] = carbamazepine peak brain tissue concentration by route (Barakat)
[17] = reservoir concentration about 25-50 mg/ml

MRP2, sequence (Q92887 whole entry): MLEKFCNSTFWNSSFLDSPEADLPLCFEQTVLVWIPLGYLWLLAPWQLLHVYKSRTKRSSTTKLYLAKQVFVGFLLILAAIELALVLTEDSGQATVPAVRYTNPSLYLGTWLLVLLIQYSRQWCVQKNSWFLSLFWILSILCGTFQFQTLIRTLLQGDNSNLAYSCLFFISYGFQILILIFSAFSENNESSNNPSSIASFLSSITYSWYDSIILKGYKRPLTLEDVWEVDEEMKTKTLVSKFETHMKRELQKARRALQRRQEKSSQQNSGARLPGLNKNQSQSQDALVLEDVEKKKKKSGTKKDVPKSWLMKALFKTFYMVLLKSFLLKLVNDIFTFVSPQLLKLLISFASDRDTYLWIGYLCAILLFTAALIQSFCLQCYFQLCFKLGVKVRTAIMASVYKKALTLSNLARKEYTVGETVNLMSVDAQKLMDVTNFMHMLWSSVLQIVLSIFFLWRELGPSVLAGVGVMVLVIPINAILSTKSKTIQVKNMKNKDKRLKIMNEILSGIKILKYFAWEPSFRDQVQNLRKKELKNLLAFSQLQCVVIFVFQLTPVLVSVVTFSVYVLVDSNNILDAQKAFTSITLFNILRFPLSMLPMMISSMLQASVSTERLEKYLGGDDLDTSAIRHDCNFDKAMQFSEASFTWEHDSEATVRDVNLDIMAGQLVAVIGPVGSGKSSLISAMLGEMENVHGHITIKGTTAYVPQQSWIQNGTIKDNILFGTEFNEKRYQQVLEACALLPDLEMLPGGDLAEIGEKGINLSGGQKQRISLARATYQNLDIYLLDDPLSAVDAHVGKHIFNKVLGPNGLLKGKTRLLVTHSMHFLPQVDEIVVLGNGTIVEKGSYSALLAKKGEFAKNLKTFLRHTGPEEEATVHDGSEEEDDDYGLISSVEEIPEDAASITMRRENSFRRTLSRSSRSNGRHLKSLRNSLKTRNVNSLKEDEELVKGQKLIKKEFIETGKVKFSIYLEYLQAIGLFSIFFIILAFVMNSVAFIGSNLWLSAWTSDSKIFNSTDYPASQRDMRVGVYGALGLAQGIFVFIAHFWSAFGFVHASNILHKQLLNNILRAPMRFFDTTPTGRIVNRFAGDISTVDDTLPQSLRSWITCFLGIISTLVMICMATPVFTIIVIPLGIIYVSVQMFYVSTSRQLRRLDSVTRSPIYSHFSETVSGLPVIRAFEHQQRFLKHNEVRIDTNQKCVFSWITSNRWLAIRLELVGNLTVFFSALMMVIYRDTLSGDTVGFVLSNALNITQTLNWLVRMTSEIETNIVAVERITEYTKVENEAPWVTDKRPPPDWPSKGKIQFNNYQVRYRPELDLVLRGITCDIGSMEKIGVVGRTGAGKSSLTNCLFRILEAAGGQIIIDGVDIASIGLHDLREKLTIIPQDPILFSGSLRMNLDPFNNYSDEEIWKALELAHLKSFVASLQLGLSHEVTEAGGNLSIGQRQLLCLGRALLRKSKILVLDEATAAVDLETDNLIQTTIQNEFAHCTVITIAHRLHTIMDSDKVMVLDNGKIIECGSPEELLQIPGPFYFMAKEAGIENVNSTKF

O=C(O)c1ccccc1O [Salicylic Acid]
Flux [1]: 41.17 μg/(cm^2 · h)

Nc1nc2c(ncn2COCCO)c(=O)[nH]1 [Acyclovir]
solubility in water of the unmodified compound [2]: 1.4 mg/mL

CCCCOC(=O)[C@@H](N)Cc1ccc(O)c(O)c1 [L-dopa butyl ester]
estimated time for 10% decomposition ([3]; pH 4.4, 0.05M phosphate buffer, 10° C.): 2.7 years

CCCCCCC(C)(C)c1cc(O)c2c(c1)OC(C)(C)[C@H]1CC=C(CO)C[C@H]21 [dexanabinol]
Parent Solubility [2]: 2 to 7 mg/mL

CC(C)NCC(O)COc1ccc(CC(N)=O)cc1 (centres unmarked) [Atenolol]
Flux [1]: 400 μg/(cm^2 · h)

CN(C)CCCC(=O)Oc1ccc2c(c1)CC[C@@H]1[C@@H]2CC[C@]2(C)[C@@H](O)CC[C@@H]12.Cl [3-DMABE2-HCl, 3-N,N dimethylamino butyl ester HCl]
peak CSF concentration (molar) [4]: ~0.15 µM | peak cerebrospinal fluid (CSF) concentration of estradiol [5]: about 66 ng/ml

COc1cc(/C=C/C(=O)CC(=O)/C=C/c2ccc(O)c(OC)c2)ccc1O [curcumin, (E,E)-1,7-bis(4-hydroxy-3-methoxyphenyl)-1,6-heptadiene-3,5,-dione]
predicted flux ([6]; divalent curcumin salt): about 800 μg/(cm^2·h) | predicted plasma concentration ([6]; divalent curcumin salt): about 0.3 μM | predicted flux [6, 17]: about 400 μg/(cm^2·h) | predicted plasma concentration [6, 17]: about 60 ng/ml; also recorded: about 0.14 μM | predicted flux ([6]; worst case): about 35 μg/(cm^2·h) | predicted plasma concentration ([6]; worst case): about 5 ng/ml | predicted plasma concentration ([6]; worst case, flux 35, 50 cm^2, clearance 350 L/hr): 0.012 µM | AUC ([7]; Shoba, Oral + piperine): 80 µg·h/L | AUC ([7]; Shoba, Oral Dosing): 4 µg·h/L | serum Cmax ([7]; Shoba, 2 g/day oral curcumin supplemented with piperine, second of two values): 0.18 µg/mL | serum Cmax ([7]; Shoba, 2 g/day oral curcumin, first of two values): 0.006 µg/mL | AUC ([7]; Vareed, Oral Dosing): ~30 µg·h/L | area-under-the-curve (AUC) ([7]; dose of about 11 g, healthy volunteers, conjugated curcumin (Vareed)): about 30 μg/ml·hr | clearance ([7]; oral dosing of curcumin plus piperine (Shoba)): 7.33 L/h | octanol/water partition coefficient log P [8]: ~3 | inhibition of UGT1A1 (UGT1A1): about 95% | clearance ([9]; curcumin alone (Shoba)): 495 L/h | clearance ([9]; curcumin with piperine (Shoba)): 713 L/h | blood brain barrier crossing and plaque binding (amyloid plaques): crossed the blood brain barrier and bound amyloid plaques | solubility in water of the unmodified compound [2]: about 0.004 mg/ml | IC50 (MRP2): 5 µM | peak curcumin concentration in brain tissue (molar) [10]: about 0.40 uM

CN(C)CCCC(=O)O[C@H]1CC[C@H]2[C@@H]3CCc4cc(O)ccc4[C@H]3CC[C@]12C.Cl [17-DMABE2HCl, 17-N,N dimethylamino butyl ester HCl]
peak CSF concentration (molar) [4]: about 0.075 μM | shelf life of nasal spray solution ([3]; pH 4, 25° C.): approximately 19 months | peak cerebrospinal fluid (CSF) concentration of estradiol [5]: about 30 ng/ml

CC(C)(C)NC[C@H](O)COc1nsnc1N1CCOCC1 [Timolol]
Flux ([1]; reservoir 10 mg/ml, 2 ml): 200 μg/(cm^2 · h) | Flux ([1]; reservoir 20 mg/ml, 2 ml): 250 μg/(cm^2 · h)

C[C@]12CC[C@H]3[C@@H](CCC4=CC(=O)CC[C@@]43C)[C@@H]1CC[C@@H]2OC(=O)[C@@H]1CCC[N+]1(C)C [testosterone-17β-stachydrine ester, chloride salt]
iontophoretic flux [1]: about 40 μg/(cm^2·h)

[Mg+2] [Mg^+2]
inhibition of enzymatic glucuronidation activity [11]: about 85%

COc1cc(/C=C/C(=O)COC(=O)/C=C/c2ccc(O)c(OC)c2)ccc1O [compound 31, 4″-(3′″-methoxy-4′″-hydroxyphenyl)-2″-oxo-3″-enebutanyl3-(3′-methoxy-4′hydroxyphenyl)propenoate]
fold more potent than curcumin as neuroprotectant against beta amyloid (PC12 cells; analysis of the Park data): ~5 fold | anti-βA (25-35) ED50 (PC12 cells, βA (25-35)): 1.0 ± 0.3 µg/mL | anti-βA (1-42) ED50 (PC12 cells, βA (1-42)): 2.0 ± 0.4 µg/mL

Triton X-100
inhibition of several UGT enzymes (UGT enzymes): nearly fully inhibited

C[C@]12CC[C@H](O)CC1=CC[C@@H]1[C@@H]2CC[C@]2(C)C(=O)CC[C@@H]12 [DHEA]
octanol/water partition coefficient log P [8]: 1.54

Oc1ccc(C=Cc2cc(O)cc(O)c2)cc1 [resveratrol]
octanol/water partition coefficient log P [8]: about 3.14 | concentration with neuroprotective effect against beta amyloid-induced neurotoxicity (rat hippocampal neurons): 20 µM | concentration protecting against nitric oxide related neurotoxicity [12]: 5 to 25 µM | oral bioavailability [13]: about zero | solubility in water [2]: < 0.01 mol/L | Ki [14]: 102 nM

CCCN(CCC)C1CCc2c(O)cccc2C1 (centres unmarked) [5-OH-DPAT]
Flux ([1]; 0.5 mg/ml): 78.4 nmol/cm/h | Flux ([1]; 1.3 mg/ml): 187.6 nmol/cm/h | Flux ([1]; 2.3 mg/ml): 318.2 nmol/cm/h | Flux [1]: 90 μg/(cm^2 · h)

O=C(C=Cc1ccc(O)cc1)CC(=O)CCc1ccc(O)cc1 [compound 34, 1,7-bis(4-hydroxyphenyl)-1-heptene-3,5-dione]
fold more potent than curcumin as neuroprotectant against beta amyloid (PC12 cells; analysis of the Park data): ~10 fold | anti-βA (25-35) ED50 (PC12 cells, βA (25-35)): 0.5 ± 0.2 µg/mL | anti-βA (1-42) ED50 (PC12 cells, βA (1-42)): 1.0 ± 0.3 µg/mL

CCN(CC)CCC(=O)Oc1ccc2c(c1)CC[C@@H]1[C@@H]2CC[C@]2(C)[C@@H](O)CC[C@@H]12.Cl [3-DEAPE2HCl, 3-N,N-diethylamino propionyl ester hydrochloride]
water solubility of estradiol ester prodrug ([2]; dimethylglycine ester where the label is estradiol): about 20 mg/ml

COc1cc(C=CC(=O)CC(=O)C=Cc2ccc(O)cc2)ccc1O [compound 32, 1-(4-hydroxy-3-methoxyphenyl)-7-(4-hydroxyphenyl)-1,6-heptadiene-3,5-dione]
fold more potent than curcumin as neuroprotectant against beta amyloid (PC12 cells; analysis of the Kim data): ~1.5 fold | anti-BA (25-35) ED50 (PC12 cells, βA (25-35)): 4.7 ± 0.1 µg/mL | anti-βA (25-35) ED50 (PC12 cells, βA (25-35)): 4.0 ± 0.5 µg/mL | anti-BA (1-42) ED50 (PC12 cells, βA (1-42)): 4.2 ± 0.3 µg/mL | anti-βA (1-42) ED50 (PC12 cells, βA (1-42)): 5.0 ± 0.5 µg/mL

O=C(C=Cc1ccc(O)cc1)CC(=O)C=Cc1ccc(O)cc1 [compound 33, 1,7-bis(4-hydroxyphenyl)-1,6-heptadiene-3,5-dione]
fold more potent than curcumin as neuroprotectant against beta amyloid (PC12 cells; analysis of the Kim data): ~2 fold | fold more potent than curcumin as neuroprotectant against beta amyloid (PC12 cells; analysis of the Park data): 3 fold | anti-BA (25-35) ED50 (PC12 cells, βA (25-35)): 3.5 ± 0.2 µg/mL | anti-βA (25-35) ED50 (PC12 cells, βA (25-35)): 2.0 ± 0.6 µg/mL | anti-BA (1-42) ED50 (PC12 cells, βA (1-42)): 3.0 ± 0.3 µg/mL | anti-βA (1-42) ED50 (PC12 cells, βA (1-42)): 3.5 ± 0.7 µg/mL | optimum concentration (AD patients' macrophages): 0.1 µM

C[C@]12CC[C@@H]3c4ccc(O)cc4CC[C@H]3[C@@H]1CC[C@@H]2O [17β-estradiol]
octanol/water partition coefficient log P [8]: 3.1-4.0 | CSF concentration of 17B-estradiol, intranasal versus comparable intravenous dose of the prodrug ([5]; dimethylglycine ester prodrug): 5-8 fold

NC(=O)N1c2ccccc2C=Cc2ccccc21 [Carbamazepine]
Peak Brain Tissue ([15]; Intranasal, 0.2 mg/kg): 12 µg/g | Peak Brain Tissue ([15]; Intravenous, 8.0 mg/kg): 4 µg/g | Peak Brain Tissue ([15]; Oral, 16 mg/kg): 3 µg/g | Peak Brain Tissue, ~uM ([16]; Intranasal, 0.2 mg/kg): ~48 µM | Peak Brain Tissue, ~uM ([16]; Intravenous, 8.0 mg/kg): ~16 µM | Peak Brain Tissue, ~uM ([16]; Oral, 16 mg/kg): ~12 µM | peak brain tissue concentration, intranasal versus oral dosing ([16]; in vivo, po): about four times higher

CC(C)c1cccc(C(C)C)c1OC(=O)[C@@H]1CCCN1 [L-proline ester of propofol]
solubility of the prodrug [2]: about 1.1 mmol/ml

C[C@]12CC[C@H]3[C@@H](CCC4=CC(=O)CC[C@@]43C)[C@@H]1CC[C@@H]2O [testosterone]
Parent Solubility [2]: 0.01 mg/mL | Flux [1]: 40 μg/(cm^2 · h)

OCCOCCN1CCN(C(c2ccccc2)c2ccc(Cl)cc2)CC1 (centres unmarked) [hydroxyzine.HCl]
octanol:water partition coefficient log Doct/pH 7.4 ([8]; pH 7.4): 2.37-2.87
